Patent US20260091026A1, “METHODS OF TREATING INFLAMMATORY DISEASES” (INTERLINE THERAPEUTICS, INC., priority 2023, published 2026)
Like-named read-outs stand apart in the source and are kept apart here.

Assays:
RIPK2 (KD)/XIAP (BIR2) = molecular target: T1, RIPK2 (KD)/XIAP (BIR2) (Homo sapiens, UniProt O43353); test: RIPK2-XIAP binding competition PPI assay (TR-FRET); conditions: for Emax: read-out: PPI Amax; for IC50: GST-RIPK2 / His-XIAP (BIR2)-avi, 120 min at 23° C.
T1 construct: made in house; host or cells: baculovirus-infected Sf9 cells
Method in brief: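 After 2 h at 23 °C, complex formation was read as the 665/520 nm emission ratio (337 nm excitation), scaled between uninhibited reaction and 50 nM GSK583. The mix held 1 nM human RIPK2 kinase fragment-GST, 25 nM His-tagged XIAP BIR2 and Tb/XL665 antibodies in pH 7.5 Tris buffer containing vanadate and glycerophosphate.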

[1] = test system: THP1-Dual cells, NF-κB pathway (SEAP); test: THP-1 Dual cell SEAP assay (L18-MDP stimulated); format: cell-based; conditions: 10 ng/mL L18-MDP, 20-24 h, SEAP readout, read-out: IFNγ THP1 IC50
Method in brief: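 IC50 values come from non-linear fits of % inhibition of SEAP, measured as QUANTI-Blue optical density (620-655 nm, 2 h) in media-blanked supernatants. These were taken from THP1-Dual cells treated with compound for 30 min before overnight exposure to 10 ng/mL L18-MDP final at 37 °C.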

[2] = 50 nM of GSK583 = -100% activity

T1 sequence (O43353 1-310): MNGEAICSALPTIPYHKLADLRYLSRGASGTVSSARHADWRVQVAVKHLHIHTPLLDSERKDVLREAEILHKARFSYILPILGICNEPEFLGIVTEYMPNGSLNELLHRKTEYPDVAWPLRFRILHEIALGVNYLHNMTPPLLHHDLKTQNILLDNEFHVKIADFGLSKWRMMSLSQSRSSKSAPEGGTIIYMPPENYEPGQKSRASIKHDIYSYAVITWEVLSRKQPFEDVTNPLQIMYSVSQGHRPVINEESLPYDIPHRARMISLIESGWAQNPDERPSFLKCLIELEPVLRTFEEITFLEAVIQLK

Structure (SMILES) | Emax (RIPK2 (KD)/XIAP (BIR2); [2]) [%] | IC50 (RIPK2 (KD)/XIAP (BIR2)) [nM] | IC50 ([1]; Homo sapiens) [nM] | PPI Amax (RIPK2 (KD)/XIAP (BIR2); [2]) | IC50 [1] [nM]
COc1cc2ncc(-c3cc(C(=O)NCc4ncccn4)n(C)n3)n2cc1S(=O)(=O)C(C)(C)C [Example 66, 3-(6-(tert-butylsulfonyl)-7-methoxyimidazo[1,2-a]pyridin-3-yl)-1-methyl-N-(pyrimidin-2-ylmethyl)-1H-pyrazole-5-carboxamide] | ≥ 80 | 100 to 1000 | 500 to 2500 | – | –
COc1cc2ncc(-c3cc(C(=O)NCc4cccnn4)n(C)n3)n2cc1S(=O)(=O)C(C)(C)C [Example 69, 3-(6-(tert-butylsulfonyl)-7-methoxyimidazo[1,2-a]pyridin-3-yl)-1-methyl-N-(pyridazin-3-ylmethyl)-1H-pyrazole-5-carboxamide] | ≤ 30 | > 1000 | > 2500 | – | –
COc1cc2ncc(-c3cc(C(=O)N[C@@H]4C[C@H]4c4ccccc4)n(C)n3)n2cc1S(=O)(=O)C(C)(C)C (single isomer, unassigned) [Example 34, trans-(1S,2R) or (1R,2S) 3-(6-(tert-butylsulfonyl)-7-methoxyimidazo[1,2-a]pyridin-3-yl)-1-methyl-N-(2-phenylcyclopropyl)-1H-pyrazole-5-carboxamide] | – | > 1000 | – | A (Amax of ≥80%) | > 2500
COc1cc2ncc(-c3cc(C(=O)NCc4ccccc4CO)n(C)n3)n2cc1S(=O)(=O)C(C)(C)C [Example 74, 3-(6-(tert-butylsulfonyl)-7-methoxyimidazo[1,2-a]pyridin-3-yl)-N-(2-(hydroxymethyl)benzyl)-1-methyl-1H-pyrazole-5-carboxamide] | ≥ 80 | 10 to 100 | 500 to 2500 | – | –
COc1cc2ncc(-c3cc(C(=O)NCC4CCC4)n(C)n3)n2cc1S(=O)(=O)C(C)(C)C [Example 39, 3-(6-(tert-butylsulfonyl)-7-methoxyimidazo[1,2-a]pyridin-3-yl)-N-(cyclobutylmethyl)-1-methyl-1H-pyrazole-5-carboxamide] | ≥ 80 | 100 to 1000 | > 2500 | – | –
COc1cc2ncc(-c3cc(C(=O)NCc4ncsn4)n(C)n3)n2cc1S(=O)(=O)C(C)(C)C [Example 90, N-((1,2,4-thiadiazol-3-yl)methyl)-3-(6-(tert-butylsulfonyl)-7-methoxyimidazo[1,2-a]pyridin-3-yl)-1-methyl-1H-pyrazole-5-carboxamide] | 55 to 80 | 10 to 100 | 500 to 2500 | – | –
COc1cc2ncc(-c3cc(C(=O)NCc4cc(F)ccn4)n(C)n3)n2cc1S(=O)(=O)C(C)(C)C [Example 53, 3-(6-(tert-butylsulfonyl)-7-methoxyimidazo[1,2-a]pyridin-3-yl)-N-((4-fluoropyridin-2-yl)methyl)-1-methyl-1H-pyrazole-5-carboxamide] | ≥ 80 | 100 to 1000 | > 2500 | – | –
CCn1nc(-c2cnc3cc(OCCO)c(S(=O)(=O)C(C)(C)C)cn23)cc1C(=O)N[C@@H](C)c1ccn(C)n1 [Example 123, (S)-3-(6-(tert-butylsulfonyl)-7-(2-hydroxyethoxy)imidazo[1,2-a]pyridin-3-yl)-1-ethyl-N-(1-(1-methyl-1H-pyrazol-3-yl)ethyl)-1H-pyrazole-5-carboxamide] | ≥ 80 | 100 to 1000 | > 2500 | – | –
COc1cc2ncc(-c3cc(C(=O)NCc4ccnn4C)n(C)n3)n2cc1S(=O)(=O)C(C)(C)C [Example 70, 3-(6-(tert-butylsulfonyl)-7-methoxyimidazo[1,2-a]pyridin-3-yl)-1-methyl-N-((1-methyl-1H-pyrazol-5-yl)methyl)-1H-pyrazole-5-carboxamide] | 30 to 55 | > 1000 | > 2500 | – | –
COc1cc2ncc(-c3cc(C(=O)NCc4cn5ccccc5n4)n(C)n3)n2cc1S(=O)(=O)C(C)(C)C [Example 22, 3-(6-(tert-butylsulfonyl)-7-methoxyimidazo[1,2-a]pyridin-3-yl)-N-(imidazo[1,2-a]pyridin-2-ylmethyl)-1-methyl-1H-pyrazole-5-carboxamide] | ≤ 30 | > 1000 | > 2500 | – | –
COc1cc2ncc(-c3cc(C(=O)NCc4cnccn4)n(C)n3)n2cc1S(=O)(=O)C(C)(C)C [Example 67, 3-(6-(tert-butylsulfonyl)-7-methoxyimidazo[1,2-a]pyridin-3-yl)-1-methyl-N-(pyrazin-2-ylmethyl)-1H-pyrazole-5-carboxamide] | 55 to 80 | > 1000 | > 2500 | – | –
COc1cc2ncc(-c3cc(C(=O)N[C@H](C)c4cn(C)cn4)n(C)n3)n2cc1S(=O)(=O)C(C)(C)C [Example 56, (R)-3-(6-(tert-butylsulfonyl)-7-methoxyimidazo[1,2-a]pyridin-3-yl)-1-methyl-N-(1-(1-methyl-1H-imidazol-4-yl)ethyl)-1H-pyrazole-5-carboxamide] | ≥ 80 | 100 to 1000 | > 2500 | – | –
COc1cc2ncc(-c3cc(C(=O)NCc4n[nH]c5cccc(F)c45)n(C)n3)n2cc1S(=O)(=O)C(C)(C)C [Example 19, 3-(6-(tert-butylsulfonyl)-7-methoxyimidazo[1,2-a]pyridin-3-yl)-N-((4-fluoro-1H-indazol-3-yl)methyl)-1-methyl-1H-pyrazole-5-carboxamide] | ≥ 80 | < 10 | 100 to 500 | – | –
CCn1nc(-c2cnc3cc(OCCO)c(S(=O)(=O)C(C)(C)C)cn23)cc1C(=O)N[C@H](C)c1ncccn1 [Example 119, (R)-3-(6-(tert-butylsulfonyl)-7-(2-hydroxyethoxy)imidazo[1,2-a]pyridin-3-yl)-1-ethyl-N-(1-(pyrimidin-2-yl)ethyl)-1H-pyrazole-5-carboxamide] | ≥ 80 | < 10 | < 100 | – | –
COc1cc2ncc(-c3cc(C(=O)N[C@H](C)c4ncccc4F)n(C4CN(C)C4)n3)n2cc1S(=O)(=O)C(C)(C)C [Example 147, (R)-3-(6-(tert-butylsulfonyl)-7-methoxyimidazo[1,2-a]pyridin-3-yl)-N-(1-(3-fluoropyridin-2-yl)ethyl)-1-(1-methylazetidin-3-yl)-1H-pyrazole-5-carboxamide] | ≥ 80 | 100 to 1000 | 500 to 2500 | – | –
COc1cc2ncc(-c3cc(C(=O)N[C@@H]4C[C@@H]4c4ccccc4)n(C)n3)n2cc1S(=O)(=O)C(C)(C)C (single isomer, unassigned) [Example 30, cis-(1S,2S) or (1R,2R) 3-(6-(tert-butylsulfonyl)-7-methoxyimidazo[1,2-a]pyridin-3-yl)-1-methyl-N-(2-phenylcyclopropyl)-1H-pyrazole-5-carboxamide] | 30 to 55 | > 1000 | > 2500 | – | –
COc1cc2ncc(-c3cc(C(=O)N[C@@H](C)c4ccn(C)n4)n(C)n3)n2cc1S(=O)(=O)C(C)(C)C [Example 60, (S)-3-(6-(tert-butylsulfonyl)-7-methoxyimidazo[1,2-a]pyridin-3-yl)-1-methyl-N-(1-(1-methyl-1H-pyrazol-3-yl)ethyl)-1H-pyrazole-5-carboxamide] | ≥ 80 | > 1000 | > 2500 | – | –
COc1cc2ncc(-c3cc(C(=O)NCc4ccccc4)n(C)n3)n2cc1S(=O)(=O)C(C)(C)C [Example 28, N-benzyl-3-(6-(tert-butylsulfonyl)-7-methoxyimidazo[1,2-a]pyridin-3-yl)-1-methyl-1H-pyrazole-5-carboxamide] | ≥ 80 | 100 to 1000 | 500 to 2500 | – | –
COc1cc2ncnc(-c3cc(C(=O)N[C@H](C)c4ccccc4)n(C)n3)c2cc1S(=O)(=O)C(C)(C)C [Example 192, (R)-3-(6-(tert-butylsulfonyl)-7-methoxyquinazolin-4-yl)-1-methyl-N-(1-phenylethyl)-1H-pyrazole-5-carboxamide] | ≥ 80 | 10 to 100 | 500 to 2500 | – | –
CCn1nc(-c2cnc3cc(OC)c(S(=O)(=O)C(C)(C)C)cn23)cc1C(=O)N[C@H](C)c1ccccn1 [Example 95, (R)-3-(6-(tert-butylsulfonyl)-7-methoxyimidazo[1,2-a]pyridin-3-yl)-1-ethyl-N-(1-(pyridin-2-yl)ethyl)-1H-pyrazole-5-carboxamide] | ≥ 80 | < 10 | < 100 | – | –
CCn1nc(-c2cnc3cc(OCCO)c(S(=O)(=O)C(C)(C)C)cn23)cc1C(=O)N[C@H](C)c1ccccn1 [Example 121, (R)-3-(6-(tert-butylsulfonyl)-7-(2-hydroxyethoxy)imidazo[1,2-a]pyridin-3-yl)-1-ethyl-N-(1-(pyridin-2-yl)ethyl)-1H-pyrazole-5-carboxamide] | ≥ 80 | < 10 | < 100 | – | –
CCn1nc(-c2cnc3cc(OC)c(S(=O)(=O)C(C)(C)C)cn23)cc1C(=O)NCc1ncccn1 [Example 80, 3-(6-(tert-butylsulfonyl)-7-methoxyimidazo[1,2-a]pyridin-3-yl)-1-ethyl-N-(pyrimidin-2-ylmethyl)-1H-pyrazole-5-carboxamide] | ≥ 80 | 10 to 100 | 100 to 500 | – | –
CCn1nc(-c2cnc3cc(OCCO)c(S(=O)(=O)C(C)(C)C)cn23)cc1C(=O)N[C@@H](C)c1cc(C)sn1 [Example 133, (S)-3-(6-(tert-butylsulfonyl)-7-(2-hydroxyethoxy)imidazo[1,2-a]pyridin-3-yl)-1-ethyl-N-(1-(5-methylisothiazol-3-yl)ethyl)-1H-pyrazole-5-carboxamide] | ≥ 80 | 100 to 1000 | 500 to 2500 | – | –
